What is called MIC is the lowest concentration found to suppress growth.

The structures appear in SMILES notation. Values after ≈ are worked out from the molar mass of the structure shown.

We go through 19 molecules from ChEMBL document CHEMBL1139448, “Synthesis and antibacterial activity of 7-(substituted)aminomethyl quinolones” (2004).

Holding throughout (type): functional
The test system of one assay is Citrobacter freundii. Kind of assay: In vitro antibacterial activity against gram-negative Citrobacter freundii.
The subject of the next assay is Shigella boydii. Kind of assay: In vitro antibacterial activity against gram-negative Shigella boydii.
In another assay the test system is Streptococcus pneumoniae. Kind of assay: In vitro antibacterial activity against gram-positive Streptococcus pneumoniae.
A further assay relates to Staphylococcus aureus. Kind of assay: In vitro antibacterial activity against gram-positive Staphylococcus aureus.
The test system of assay [1] is Staphylococcus epidermidis. The assay can be described thus: In vitro antibacterial activity against gram-positive Staphylococcus epidermidis.
The test system of a further assay is Klebsiella pneumoniae. Kind of assay: In vitro antibacterial activity against gram-negative Klebsiella pneumoniae.

Consider `O=C(O)c1cn(C2CC2)c2c(F)c(N3CCNCC3)c(F)cc2c1=O`, for which the MIC in the assay with Citrobacter freundii was 0.049 mg/L (≈ 0.14 µM); with Shigella boydii it was 0.049 mg/L (≈ 0.14 µM); in the assay on Streptococcus pneumoniae, 0.049 mg/L (≈ 0.14 µM); in the assay with Staphylococcus aureus, 0.195 mg/L (≈ 0.558 µM); in assay [1] it was 0.39 mg/L (≈ 1.12 µM); in the assay with Klebsiella pneumoniae, 0.049 mg/L (≈ 0.14 µM).

With `Cl.O=C(O)c1cn(C2CC2)c2c(F)c(CNc3cccc(Cl)c3)c(F)cc2c1=O`, the lowest concentration to inhibit growth against Citrobacter freundii (MIC) was 1.56 mg/L.

In the assay on Citrobacter freundii, `CN1CCN(Cc2c(F)cc3c(=O)c(C(=O)O)cn(C4CC4)c3c2F)CC1.Cl` had an MIC of 1.56 mg/L.

Take `Cl.NCc1c(F)cc2c(=O)c(C(=O)O)cn(C3CC3)c2c1F`: the minimal inhibitory concentration (MIC) stood at 0.098 mg/L in the assay on Citrobacter freundii; 0.098 mg/L against Shigella boydii; 0.78 mg/L in the assay on Streptococcus pneumoniae; 12.5 mg/L in the assay on Staphylococcus aureus; 12.5 mg/L in assay [1]; 0.098 mg/L with Klebsiella pneumoniae.

`Cl.O=C(O)c1cn(C2CC2)c2c(F)c(CNC3CC3)c(F)cc2c1=O` showed an MIC in the assay on Citrobacter freundii of no more than 0.049 mg/L.

With `CCCNCc1c(F)cc2c(=O)c(C(=O)O)cn(C3CC3)c2c1F.Cl`, the minimal inhibitory concentration (MIC) in the assay with Citrobacter freundii stood at 0.195 mg/L.

Regarding `Cl.O=C(O)c1cn(C2CC2)c2c(F)c(CN3CCNCC3)c(F)cc2c1=O`, 0.195 mg/L was the least that counted as inhibitory in the assay on Citrobacter freundii (MIC).

For the molecule `Cl.O=C(O)c1cn(C2CC2)c2c(F)c(CNc3ccc(F)cc3)c(F)cc2c1=O`, the MIC with Citrobacter freundii is 0.39 mg/L.

With `Cl.O=C(O)c1cn(C2CC2)c2c(F)c(CNc3ccc(F)c(Cl)c3)c(F)cc2c1=O`, the MIC in the assay with Citrobacter freundii was 0.78 mg/L.

`Cc1ccc(NCc2c(F)cc3c(=O)c(C(=O)O)cn(C4CC4)c3c2F)cc1.Cl` came in with an MIC with Citrobacter freundii of 0.78 mg/L.

On to `CC(C)NCc1c(F)cc2c(=O)c(C(=O)O)cn(C3CC3)c2c1F.Cl`, for which the MIC is 0.098 mg/L against Citrobacter freundii; 0.195 mg/L with Shigella boydii; 1.56 mg/L in the assay on Streptococcus pneumoniae; greater than 6.25 mg/L against Staphylococcus aureus; greater than 6.25 mg/L in assay [1]; 0.098 mg/L against Klebsiella pneumoniae.

With `CCNCc1c(F)cc2c(=O)c(C(=O)O)cn(C3CC3)c2c1F.Cl`, in the assay with Citrobacter freundii, the MIC was no more than 0.049 mg/L.

`Cl.O=C(O)c1cn(C2CC2)c2c(F)c(CNc3ccc(Cl)cc3)c(F)cc2c1=O` yielded an MIC in the assay with Citrobacter freundii of 1.56 mg/L.

`Cc1cc(C)nc(NCc2c(F)cc3c(=O)c(C(=O)O)cn(C4CC4)c3c2F)c1.Cl` yielded an MIC with Citrobacter freundii of 0.78 mg/L.

With `Cc1ccc(NCc2c(F)cc3c(=O)c(C(=O)O)cn(C4CC4)c3c2F)cc1C.Cl`, 1.56 mg/L was the least that counted as inhibitory against Citrobacter freundii (MIC).

In turn, `Cl.O=C(O)c1cn(C2CC2)c2c(F)c(CNc3ccccc3)c(F)cc2c1=O` showed an MIC against Citrobacter freundii of 0.39 mg/L.

Regarding `CCCCNCc1c(F)cc2c(=O)c(C(=O)O)cn(C3CC3)c2c1F.Cl`, in the assay with Citrobacter freundii, the MIC was 0.098 mg/L.

Regarding `CCn1cc(C(=O)O)c(=O)c2cc(F)c(N3CCNC(C)C3)c(F)c21` (centres undefined) [LOMEFLOXACIN], the MIC in the assay with Citrobacter freundii was found to be 0.098 mg/L (≈ 0.279 µM); against Shigella boydii, 0.098 mg/L (≈ 0.279 µM); in the assay on Streptococcus pneumoniae, 0.195 mg/L (≈ 0.555 µM); against Staphylococcus aureus it was 0.78 mg/L (≈ 2.22 µM); in assay [1], 0.78 mg/L (≈ 2.22 µM); in the assay on Klebsiella pneumoniae, 0.098 mg/L (≈ 0.279 µM).

Regarding `CN[C@H](CC(C)C)C(=O)N[C@H]1C(=O)N[C@@H](CC(N)=O)C(=O)N[C@H]2C(=O)N[C@H]3C(=O)N[C@H](C(=O)N[C@H](C(=O)O)c4cc(O)cc(O)c4-c4cc3ccc4O)[C@H](O)c3ccc(c(Cl)c3)Oc3cc2cc(c3O[C@@H]2O[C@H](CO)[C@@H](O)[C@H](O)[C@H]2O[C@H]2C[C@](C)(N)[C@H](O)[C@H](C)O2)Oc2ccc(cc2Cl)[C@H]1O` [VANCOMYCIN], in the assay on Citrobacter freundii, the MIC is greater than 6.25 mg/L.
